Laboratory results published in patent publication US6881741B2 (ViroChem Pharma Inc., priority 2001, dated 2005).
Like-named read-outs stand apart in the source and are kept apart here.

Molecular target: recombinant HCV NS5B (HCV RNA-dependent RNA polymerase) (Hepatitis C virus genotype 1b, UniProt P26663)
Experiment: biochemical
[1] = related polymerase activity (Example 27 list), read-out: IC50
[2] = HCV polymerase activity, list of compounds of Example 27, read-out: IC50 (polymerase activity)

Sequence of recombinant HCV NS5B (HCV RNA-dependent RNA polymerase) (P26663 2420-3010 limits assumed): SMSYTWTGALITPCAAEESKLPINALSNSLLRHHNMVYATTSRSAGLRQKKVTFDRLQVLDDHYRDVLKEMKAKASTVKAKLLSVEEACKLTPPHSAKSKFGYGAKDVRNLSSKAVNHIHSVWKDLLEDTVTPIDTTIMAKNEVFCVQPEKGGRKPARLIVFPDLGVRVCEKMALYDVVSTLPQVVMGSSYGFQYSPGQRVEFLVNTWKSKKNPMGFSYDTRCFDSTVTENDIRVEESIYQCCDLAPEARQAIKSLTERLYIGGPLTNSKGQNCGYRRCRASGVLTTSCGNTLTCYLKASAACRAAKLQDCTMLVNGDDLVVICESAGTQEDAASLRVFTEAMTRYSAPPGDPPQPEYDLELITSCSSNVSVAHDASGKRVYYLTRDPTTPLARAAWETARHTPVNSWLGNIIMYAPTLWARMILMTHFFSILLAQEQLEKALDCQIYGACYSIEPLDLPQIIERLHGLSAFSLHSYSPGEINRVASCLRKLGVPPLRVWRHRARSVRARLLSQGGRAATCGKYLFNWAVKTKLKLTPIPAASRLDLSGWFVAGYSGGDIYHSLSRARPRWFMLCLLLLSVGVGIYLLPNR

Compound | IC50 [1] | IC50 [2]
O=C(O)c1sc(-c2ccccc2)cc1NC(=O)N1CCc2ccccc2C1 [Compound 180, 3-[(3,4-DIHYDRO-1H-ISOQUINOLINE-2-CARBONYL)-AMINO]-5-PHENYL-THIOPHENE-2-CARBOXYLIC ACID] | 5 to 20 µM | –
Cc1cccc(C)c1N1CCN(C(=O)Nc2cc(-c3ccccc3)sc2C(=O)O)CC1 [Compound 158, 3-{[4-(2,6-DIMETHYL-PHENYL)-PIPERAZINE-1-CARBONYL]-AMINO}-5-PHENYL-THIOPHENE-2-CARBOXYLIC ACID] | > 20 µM | –
O=C(O)c1sc(-c2ccccc2)cc1NS(=O)(=O)c1ccc(F)c(C(F)(F)F)c1 [Compound 145, 3-(4-FLUORO-3-TRIFLUOROMETHYL-BENZENESULFONYLAMINO)-5-PHENYL-THIOPHENE-2-CARBOXYLIC ACID] | 5 to 20 µM | –
Cc1cc(S(=O)(=O)N(Cc2cccc(I)c2)c2cc(-c3ccccc3)sc2C(=O)O)c(C)cc1Cl [Compound 1, 3-[(4-CHLORO-2,5-DIMETHYL-BENZENESULFONYL)-(3-IODO-BENZYL)-AMINO]-5-PHENYL-THIOPHENE-2-CARBOXYLIC ACID] | 5 to 20 µM | –
O=C(O)c1sc(-c2ccccc2)cc1NS(=O)(=O)c1ccc(-c2csnn2)s1 [Compound 46, 5-PHENYL-3-(5-[1,2,3]THIADIAZOL-4-YL-THIOPHENE-2-SULFONYLAMINO)-THIOPHENE-2-CARBOXYLIC ACID] | 5 to 20 µM | –
Cc1ccc(C(=O)N(Cc2cccc(Cl)c2)c2cc(-c3ccccc3)sc2C(=O)O)cc1 [Compound 335, 3-[(3-CHLORO-BENZYL)-(4-METHYL- BENZOYL)-AMINO]-5-PHENYL- THIOPHENE-2-CARBOXYLIC ACID] | < 5 µM | –
O=C(O)c1sc(-c2ccccc2)cc1N(Cc1cccc(Cl)c1)C(=O)C1CC1 [Compound 480, 3-[(3-CHLORO-BENZYL)- CYCLOPROPANECARBONYL-AMINO]-5- PHENYL-THIOPHENE-2-CARBOXYLIC ACID] | – | 5 to 20 µM
CCN(C(=O)CCC1CCCC1)c1cc(-c2ccccc2)sc1C(=O)O [Compound 392, 3-[(3-CYCLOPENTYL-PROPIONYL)- ETHYL-AMINO]-5-PHENYL-THIOPHENE-2- CARBOXYLIC ACID] | < 5 µM | –
Cc1cccc(-c2cc(N(C(=O)C3CCC(C)CC3)C(C)C)c(C(=O)O)s2)c1 (stereo not shown) [Compound 448, 3-[ISOPROPYL-(4-METHYL- CYCLOHEXANECARBONYL)-AMINO]-5- #M!-TOLYL-THIOPHENE-2-CARBOXYLIC ACID] | – | < 5 µM
O=C(O)c1sc(-c2ccccc2)cc1NS(=O)(=O)c1cccs1 [Compound 23, 5-PHENYL-3-(THIOPHENE-2-SULFONYLAMINO)-THIOPHENE-2-CARBOXYLIC ACID] | < 5 µM | –
CC(C)N(C(=O)c1ccc(Cl)cc1Cl)c1cc(-c2ccc(C(=O)O)cc2)sc1C(=O)O [Compound 375, 5-(4-CARBOXY-PHENYL)-3-[(2,4- DICHLORO-BENZOYL)-ISOPROPYL- AMINO]-THIOPHENE-2-CARBOXYLIC ACID] | < 5 µM | –
O=C(O)c1sc(-c2ccccc2)cc1NS(=O)(=O)c1ccc(Cl)c(Cl)c1Cl [Compound 153, 5-PHENYL-3-(2,3,4-TRICHLORO-BENZENESULFONYLAMINO)-THIOPHENE-2-CARBOXYLIC ACID] | < 5 µM | –
CN(C(=O)c1cc(Cl)cc(Cl)c1)c1cc(-c2ccccc2)sc1C(=O)O [Compound 254, 3-[(3,5-DICHLORO-BENZOYL)-METHYL-AMINO]-5-PHENYL-THIOPHENE-2-CARBOXYLIC ACID] | 5 to 20 µM | –
Cc1ccccc1S(=O)(=O)Nc1cc(-c2ccncc2)sc1C(=O)O [Compound 86, 5-PYRIDIN-4-YL-3-(TOLUENE-2-SULFONYLAMINO)-THIOPHENE-2-CARBOXYLIC ACID] | < 5 µM | –
CC1CCCC(C(=O)N(c2cc(-c3ccccc3)sc2C(=O)O)C(C)C)C1 (stereo not shown) [Compound 371, 3-[(3-METHYL- CYCLOHEXANECARBOXYL)-ISOPROPYL- AMINO]-5-PHENYL-THIOPHENE-2- CARBOXYLIC ACID] | > 20 µM | –
CC(=O)N(Cc1ccccc1C)c1cc(-c2ccccc2)sc1C(=O)O [Compound 426, 3-[ACETYL-(2-METHYL-BENZYL)-AMINO]- 5-PHENYL-THIOPHENE-2-CARBOXYLIC ACID] | – | > 20 µM
O=C(O)c1sc(-c2ccccc2)cc1NS(=O)(=O)c1ccccc1 [Compound 17, 3-BENZENESULFONYLAMINO-5-PHENYL-THIOPHENE-2-CARBOXYLIC ACID] | 5 to 20 µM | –
O=C(O)c1sc(-c2ccccc2)cc1N(C(=O)c1ccc(Cl)cc1Cl)C1CCCC1 [Compound 201, 3-[CYCLOPENTYL-(2,4-DICHLORO-BENZOYL)-AMINO]-5-PHENYL-THIOPHENE-2-CARBOXYLIC ACID] | < 5 µM | –
Cc1ccc(C(=O)N(C)c2cc(-c3ccc(Cl)cc3)sc2C(=O)O)cc1 [Compound 192, 5-(4-CHLORO-PHENYL)-3-[METHYL-(4-METHYL-BENZOYL)-AMINO]-THIOPHENE-2-CARBOXYLIC ACID] | 5 to 20 µM | –
Cc1ccccc1S(=O)(=O)Nc1cc(-c2ccc(N)cc2)sc1C(=O)O [Compound 165, 5-(4-AMINO-PHENYL)-3-(TOLUENE-2-SULFONYLAMINO)-THIOPHENE-2-CARBOXYLIC ACID] | 5 to 20 µM | –

Compound | IC50 [1] | IC50 [2]
CC1CCC(C(=O)N(c2cc(-c3ccc(C(F)(F)F)cc3)sc2C(=O)O)C(C)C)CC1 (stereo not shown) [Compound 575, 3-[ISOPROPYL-(4-METHYL- CYCLOHEXANECARBONYL)-AMINO]-5-(4- TRIFLUOROMETHYL-PHENYL)- THIOPHENE-2-CARBOXYLIC ACID] | – | < 5 µM
C=CCN(C(=O)C1CCC1)c1cc(-c2ccccc2)sc1C(=O)O [Compound 398, 3-(ALLYL-CYCLOBUTANECARBONYL- AMINO)-5-PHENYL-THIOPHENE-2- CARBOXYLIC ACID] | > 20 µM | –
CCc1ccc(-c2cc(N(C(=O)c3ccc(C)cc3O)C(C)C)c(C(=O)O)s2)cc1 [Compound 501, 5-(4-ETHYL-PHENYL)-3-[(2-HYDROXY-4- METHYL-BENZOYL)-ISOPROPYL-AMINO]- THIOPHENE-2-CARBOXYLIC ACID] | – | < 5 µM
O=C(O)c1sc(-c2ccccc2)cc1N(Cc1ccccc1Cl)C(=O)C1CC1 [Compound 423, 3-[(2-CHLORO-BENZYL)- CYCLOPROPANECARBONYL-AMINO]-5- PHENYL-THIOPHENE-2-CARBOXYLIC ACID] | – | > 20 µM
Cc1ccc(-c2cc(NS(=O)(=O)c3ccccc3C)c(C(=O)O)s2)nc1 [Compound 184, 5-(5-METHYL-PYRIDIN-2-YL)-3-(TOLUENE-2-SULFONYLAMINO)-THIOPHENE-2-CARBOXYLIC ACID] | < 5 µM | –
Cc1ccc(CN(C(=O)C2CCC2)c2cc(-c3ccccc3)sc2C(=O)O)cc1 [Compound 435, 3-[CYCLOBUTANECARBONYL-(4- METHYL-BENZYL)-AMINO]-5-PHENYL- THIOPHENE-2-CARBOXYLIC ACID] | – | < 5 µM
Cc1cc(N(C(=O)c2ccc(Cl)cc2Cl)C(C)C)c(C(=O)O)s1 [Compound 382, 3-[(2,4-DICHLORO-BENZOYL)- ISOPROPYL-AMINO]-5-METHYL- THIOPHENE-2-CARBOXYLIC ACID] | < 5 µM | –
O=C(O)c1sc(-c2ccccc2)cc1N(C(=O)c1ccc(Cl)cc1Cl)c1ccccc1 [Compound 208, 3-[(2,4-DICHLORO-BENZOYL)-PHENYL-AMINO]-5-PHENYL-THIOPHENE-2-CARBOXYLIC ACID] | < 5 µM | –
C=CCN(C(=O)Cc1ccc2ccccc2c1)c1cc(-c2ccccc2)sc1C(=O)O [Compound 347, 3-[ALLYL-(2-NAPHTHALEN-2-YL-ACETYL)- AMINO]-5-PHENYL-THIOPHENE-2- CARBOXYLIC ACID] | > 20 µM | –
O=C(O)c1sc(-c2ccccc2)cc1N(CC1CCNCC1)C(=O)c1ccc(Cl)cc1Cl [Compound 519, 3-[(2,4-DICHLORO-BENZOYL)-PIPERIDIN- 4-YLMETHYL-AMINO]-5-PHENYL- THIOPHENE-2-CARBOXYLIC ACID] | – | < 5 µM
CC(C)N(C(=O)c1ccc(F)cc1)c1cc(-c2ccccc2)sc1C(=O)O [Compound 226, 3-[(4-FLUORO-BENZOYL)-ISOPROPYL-AMINO]-5-PHENYL-THIOPHENE-2-CARBOXYLIC ACID] | 5 to 20 µM | –
CC1CCC(C(=O)N(c2cc(-c3ccccc3)sc2C(=O)O)C2CCOCC2)CC1 (stereo not shown) [Compound 572, 3-[(4-METHYL- CYCLOHEXANECARBONYL)- (TETRAHYDRO-PYRAN-4-YL)-AMINO]-5- PHENYL-THIOPHENE-2-CARBOXYLIC ACID] | – | < 5 µM
COC(=O)c1cc(S(=O)(=O)Nc2cc(-c3ccccc3)sc2C(=O)O)oc1C [Compound 154, 5-(2-CARBOXY-5-PHENYL-THIOPHEN-3-YLSULFAMOYL)-2-METHYL-FURAN-3-CARBOXYLIC ACID METHYL ESTER] | < 5 µM | –
O=C(O)c1sc(-c2ccccc2)cc1NS(=O)(=O)c1ccc(F)cc1F [Compound 27, 3-(2,4-DIFLUORO-BENZENESULFONYLAMINO)-5-PHENYL-THIOPHENE-2-CARBOXYLIC ACID] | < 5 µM | –
Cc1ccc(S(=O)(=O)Nc2cc(-c3ccc(CO)cc3)sc2C(=O)O)c(C)c1 [Compound 320, 3-(2,4-DIMETHYL- BENZENESULFONYLAMINO)-5-(4- HYDROXYMETHYL-PHENYL)- THIOPHENE-2-CARBOXYLIC ACID] | < 5 µM | –
O=C(O)c1sc(-c2ccccc2)cc1NS(=O)(=O)c1ccc(Br)cc1 [Compound 39, 3-(4-BROMO-BENZENESULFONYLAMINO)-5-PHENYL-THIOPHENE-2-CARBOXYLIC ACID] | < 5 µM | –
Cc1ccc(S(=O)(=O)Nc2cc(-c3ccccc3)sc2C(=O)O)c(C)c1 [Compound 136, 3-(2,4-DIMETHYL-BENZENESULFONYLAMINO)-5-PHENYL-THIOPHENE-2-CARBOXYLIC ACID] | < 5 µM | –
CC(C)(C)OC(=O)N1CCC(N(C(=O)c2ccc(Cl)cc2Cl)c2cc(-c3ccccc3)sc2C(=O)O)CC1 [Compound 365, 4-[(2-CARBOXY-5-PHENYL-THIOPHEN-3- YL)-(2,4-DICHLORO-BENZOYL)-AMINO]- PIPERIDINE-1-CARBOXYLIC ACID #TERT!-BUTYL ESTER] | < 5 µM | –
Cc1ccccc1S(=O)(=O)Nc1cc(-c2ccc([N+](=O)[O-])cc2)sc1C(=O)O [Compound 59, 5-(4-NITRO-PHENYL)-3-(TOLUENE-2-SULFONYLAMINO)-THIOPHENE-2-CARBOXYLIC ACID] | < 5 µM | –
Cc1ccc(C(=O)N(c2cc(-c3ccccc3)sc2C(=O)O)C(C)C)c(Br)c1 [Compound 309, 3-[(2-BROMO-4-METHYL-BENZOYL)- ISOPROPYL-AMINO]-5-PHENYL- THIOPHENE-2-CARBOXYLIC ACID] | < 5 µM | –
